Results taken from PubChem BioAssay (NCI).
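Assay format: 96-well plates, 48-hour exposure. TGI denotes the concentration required for complete inhibition of growth.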

Columns and labels:
Assay in all cases: inhibition of tumour cell growth, NCI panel, 48 h
786-0 renal = test system: 786-0 renal
A498 renal = test system: A498 renal
A549 NSCLC = test system: A549 NSCLC
ACHN renal = test system: ACHN renal
CCRF-CEM leukemia = test system: CCRF-CEM leukemia
COLO 205 colon = test system: COLO 205 colon
DLD-1 colon = test system: DLD-1 colon
DMS 114 small cell lung = test system: DMS 114 small cell lung
EKVX NSCLC = test system: EKVX NSCLC
HCC-2998 colon = test system: HCC-2998 colon
HCT-116 colon = test system: HCT-116 colon
HCT-15 colon = test system: HCT-15 colon
HL-60(TB) leukemia = test system: HL-60(TB) leukemia
HOP-18 NSCLC = test system: HOP-18 NSCLC
HOP-62 NSCLC = test system: HOP-62 NSCLC
HT29 colon = test system: HT29 colon
IGROV1 ovarian = test system: IGROV1 ovarian
K-562 leukemia = test system: K-562 leukemia
KM20L2 colon = test system: KM20L2 colon
LOX IMVI melanoma = test system: LOX IMVI melanoma
LXFL 529 NSCLC = test system: LXFL 529 NSCLC
M14 melanoma = test system: M14 melanoma
M19-MEL melanoma = test system: M19-MEL melanoma
MALME-3M melanoma = test system: MALME-3M melanoma
MOLT-4 leukemia = test system: MOLT-4 leukemia
NCI-H226 lung = test system: NCI-H226 lung
NCI-H23 lung = test system: NCI-H23 lung
NCI-H460 lung = test system: NCI-H460 lung
NCI-H522 lung = test system: NCI-H522 lung
OVCAR-3 ovarian = test system: OVCAR-3 ovarian
OVCAR-4 ovarian = test system: OVCAR-4 ovarian
OVCAR-5 ovarian = test system: OVCAR-5 ovarian
OVCAR-8 ovarian = test system: OVCAR-8 ovarian
RPMI-8226 leukemia = test system: RPMI-8226 leukemia
RXF 393 renal = test system: RXF 393 renal
RXF-631 renal = test system: RXF-631 renal
SF-268 CNS = test system: SF-268 CNS
SF-295 CNS = test system: SF-295 CNS
SF-539 CNS = test system: SF-539 CNS
SK-MEL-2 melanoma = test system: SK-MEL-2 melanoma
SK-MEL-28 melanoma = test system: SK-MEL-28 melanoma
SN12C renal = test system: SN12C renal
SNB-19 CNS = test system: SNB-19 CNS
SNB-75 CNS = test system: SNB-75 CNS
SNB-78 CNS = test system: SNB-78 CNS
SW-620 colon = test system: SW-620 colon
TK-10 renal = test system: TK-10 renal
U251 CNS = test system: U251 CNS
UACC-257 melanoma = test system: UACC-257 melanoma
UACC-62 melanoma = test system: UACC-62 melanoma
UO-31 renal = test system: UO-31 renal
XF 498 CNS = test system: XF 498 CNS
CAKI-1 renal = test system: CAKI-1 renal
DMS 273 small cell lung = test system: DMS 273 small cell lung
HOP-92 NSCLC = test system: HOP-92 NSCLC
KM12 colon = test system: KM12 colon
SK-OV-3 ovarian = test system: SK-OV-3 ovarian
SR leukemia = test system: SR leukemia

Measured: TGI

Nc1nc(=O)n(C2CC(O)C(O)C(CO)O2)cc1F (stereo unspecified)
not listed: CAKI-1 renal | DMS 273 small cell lung | HOP-92 NSCLC | KM12 colon | SK-OV-3 ovarian | SR leukemia
> 100 µM: all other assays above

COc1nc(/C=N/NC(N)=S)nc(OC)n1
not listed: CCRF-CEM leukemia | HCT-15 colon | HOP-62 NSCLC | LOX IMVI melanoma
> 100 µM: all other assays above
